Biological target: Vasopressin V1a receptor (Homo sapiens, UniProt P37288); further: in other assays of this panel Not Active means under 50% inhibition at 10 µM
Experiment: not given
Type: cell membranes, Membrane
Conditions: hek293

Chain of Vasopressin V1a receptor (P37288 whole entry): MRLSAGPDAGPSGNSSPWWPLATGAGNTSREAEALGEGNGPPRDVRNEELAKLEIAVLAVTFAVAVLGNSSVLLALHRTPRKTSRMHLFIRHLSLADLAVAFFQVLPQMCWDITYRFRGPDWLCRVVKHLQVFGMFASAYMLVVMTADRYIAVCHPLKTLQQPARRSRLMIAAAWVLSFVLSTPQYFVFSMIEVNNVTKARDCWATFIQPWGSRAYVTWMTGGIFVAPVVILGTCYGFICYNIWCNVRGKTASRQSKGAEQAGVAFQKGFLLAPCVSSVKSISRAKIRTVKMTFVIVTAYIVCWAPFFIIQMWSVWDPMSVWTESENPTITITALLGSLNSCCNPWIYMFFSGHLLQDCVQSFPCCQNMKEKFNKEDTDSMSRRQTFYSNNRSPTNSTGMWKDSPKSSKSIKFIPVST

Compound | IC50
COc1cc(C(=O)NC2CCCNC2)cc(OC)c1OC (stereo not given) [TROXIPIDE] | Not Active
CC(C)(C)NCC(O)c1ccc(O)c(CO)c1 (stereo not given) [ALBUTEROL] | Not Active
CC1(C)[C@H]2CC[C@]1(C)C(=O)C2 [(-)-CAMPHOR] | Not Active
NNc1ccccc1 [PHENYLHYDRAZINE] | Not Active

Biological target: T1, C-C chemokine receptor type 4 (Homo sapiens, UniProt P51679); further: in other assays of this panel Not Active means under 50% inhibition at 10 µM
T1 sequence (P51679 whole entry): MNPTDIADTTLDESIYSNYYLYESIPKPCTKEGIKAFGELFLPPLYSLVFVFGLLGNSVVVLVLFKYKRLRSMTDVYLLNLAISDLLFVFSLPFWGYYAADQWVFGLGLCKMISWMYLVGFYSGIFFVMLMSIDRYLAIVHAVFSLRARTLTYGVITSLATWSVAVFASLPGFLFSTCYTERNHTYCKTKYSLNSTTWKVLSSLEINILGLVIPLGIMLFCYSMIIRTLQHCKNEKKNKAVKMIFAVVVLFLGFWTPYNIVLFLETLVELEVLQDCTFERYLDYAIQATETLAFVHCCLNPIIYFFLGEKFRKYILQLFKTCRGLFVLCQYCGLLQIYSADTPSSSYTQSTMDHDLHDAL
Experiment: not given
Type: cell membranes, Membrane
Conditions: chem-1

Compound | IC50
COc1cc(C(=O)NC2CCCNC2)cc(OC)c1OC (stereo not given) [TROXIPIDE] | Not Active
CC(C)(C)NCC(O)c1ccc(O)c(CO)c1 (stereo not given) [ALBUTEROL] | Not Active
CC1(C)[C@H]2CC[C@]1(C)C(=O)C2 [(-)-CAMPHOR] | Not Active
NNc1ccccc1 [PHENYLHYDRAZINE] | Not Active

Biological target: T2, C-X-C chemokine receptor type 2 (Homo sapiens, UniProt P25025); further: in other assays of this panel Not Active means under 50% inhibition at 10 µM
T2 sequence (P25025 whole entry): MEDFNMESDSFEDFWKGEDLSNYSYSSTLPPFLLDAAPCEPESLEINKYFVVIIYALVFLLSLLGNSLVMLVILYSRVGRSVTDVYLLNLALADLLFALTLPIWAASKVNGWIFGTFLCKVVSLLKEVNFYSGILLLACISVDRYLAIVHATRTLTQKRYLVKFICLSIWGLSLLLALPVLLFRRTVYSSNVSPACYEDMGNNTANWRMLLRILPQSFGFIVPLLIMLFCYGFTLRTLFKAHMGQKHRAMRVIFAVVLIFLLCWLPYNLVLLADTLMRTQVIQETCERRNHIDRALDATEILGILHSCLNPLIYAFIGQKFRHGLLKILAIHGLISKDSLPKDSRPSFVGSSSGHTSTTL
Experiment: not given
Type: cell membranes, Membrane
Conditions: cho-k1

Compound | IC50
COc1cc(C(=O)NC2CCCNC2)cc(OC)c1OC (stereo not given) [TROXIPIDE] | Not Active
CC(C)(C)NCC(O)c1ccc(O)c(CO)c1 (stereo not given) [ALBUTEROL] | Not Active
CC1(C)[C@H]2CC[C@]1(C)C(=O)C2 [(-)-CAMPHOR] | Not Active
NNc1ccccc1 [PHENYLHYDRAZINE] | Not Active

System: not listed separately
Experiment: DRUGMATRIX: Glutamate, NMDA, Agonism radioligand binding (ligand: [3H] CGP-39653)
Type: cell membranes, Rattus norvegicus, Wistar, Cerebral cortex, Membrane
Conditions: Not Active = under 50% inhibition at 10 µM

Compound | IC50 | Ki
COc1cc(C(=O)NC2CCCNC2)cc(OC)c1OC (stereo not given) [TROXIPIDE] | Not Active | Not Active
CC(C)(C)NCC(O)c1ccc(O)c(CO)c1 (stereo not given) [ALBUTEROL] | Not Active | Not Active
CC1(C)[C@H]2CC[C@]1(C)C(=O)C2 [(-)-CAMPHOR] | Not Active | Not Active
NNc1ccccc1 [PHENYLHYDRAZINE] | Not Active | Not Active

System: not listed separately
Experiment: DRUGMATRIX: Glutamate, NMDA, Phencyclidine radioligand binding (ligand: [3H] TCP)
Type: cell membranes, Rattus norvegicus, Wistar, Cerebral cortex, Membrane
Conditions: Not Active = under 50% inhibition at 10 µM

Compound | IC50 | Ki
COc1cc(C(=O)NC2CCCNC2)cc(OC)c1OC (stereo not given) [TROXIPIDE] | Not Active | Not Active
CC(C)(C)NCC(O)c1ccc(O)c(CO)c1 (stereo not given) [ALBUTEROL] | Not Active | Not Active
CC1(C)[C@H]2CC[C@]1(C)C(=O)C2 [(-)-CAMPHOR] | Not Active | Not Active
NNc1ccccc1 [PHENYLHYDRAZINE] | Not Active | Not Active

Biological target: T3, Leukotriene C4 synthase (Cavia porcellus, UniProt A6XA80);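 further: enzyme inhibition assay of leukotriene C4 synthase, using LTA4 as the substrate; in other assays of this panel Not Active means under 50% inhibition at 10 µM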
T3 sequence (A6XA80 whole entry): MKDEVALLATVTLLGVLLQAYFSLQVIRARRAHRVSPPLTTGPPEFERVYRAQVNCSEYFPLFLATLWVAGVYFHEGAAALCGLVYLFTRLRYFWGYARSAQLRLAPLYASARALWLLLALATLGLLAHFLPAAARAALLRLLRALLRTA
Experiment: biochemical
Type: tissue-based, Lung
Conditions: not given

Compound | IC50
COc1cc(C(=O)NC2CCCNC2)cc(OC)c1OC (stereo not given) [TROXIPIDE] | Not Active
CC(C)(C)NCC(O)c1ccc(O)c(CO)c1 (stereo not given) [ALBUTEROL] | Not Active
CC1(C)[C@H]2CC[C@]1(C)C(=O)C2 [(-)-CAMPHOR] | Not Active
NNc1ccccc1 [PHENYLHYDRAZINE] | Not Active

Biological target: T4, Cysteinyl leukotriene receptor 1 (Homo sapiens, UniProt Q9Y271); further: in other assays of this panel Not Active means under 50% inhibition at 10 µM
T4 sequence (Q9Y271 whole entry): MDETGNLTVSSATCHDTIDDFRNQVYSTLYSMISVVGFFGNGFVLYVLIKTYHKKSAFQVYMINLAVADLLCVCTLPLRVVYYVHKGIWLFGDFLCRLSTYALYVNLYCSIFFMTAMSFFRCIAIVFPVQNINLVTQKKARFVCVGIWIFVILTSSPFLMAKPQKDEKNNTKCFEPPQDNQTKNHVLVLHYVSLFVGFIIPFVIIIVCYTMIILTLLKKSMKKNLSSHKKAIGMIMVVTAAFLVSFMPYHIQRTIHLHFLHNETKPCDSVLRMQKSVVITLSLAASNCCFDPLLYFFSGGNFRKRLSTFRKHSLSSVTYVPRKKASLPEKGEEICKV
Experiment: not given
Type: cell membranes, CHO-K1, Membrane
Conditions: cho-k1

Compound | IC50
COc1cc(C(=O)NC2CCCNC2)cc(OC)c1OC (stereo not given) [TROXIPIDE] | Not Active
CC(C)(C)NCC(O)c1ccc(O)c(CO)c1 (stereo not given) [ALBUTEROL] | Not Active
CC1(C)[C@H]2CC[C@]1(C)C(=O)C2 [(-)-CAMPHOR] | Not Active
NNc1ccccc1 [PHENYLHYDRAZINE] | Not Active

Biological target: T5, Neuropeptide Y receptor type 1 (Homo sapiens, UniProt P25929); further: in other assays of this panel Not Active means under 50% inhibition at 10 µM
T5 sequence (P25929 whole entry): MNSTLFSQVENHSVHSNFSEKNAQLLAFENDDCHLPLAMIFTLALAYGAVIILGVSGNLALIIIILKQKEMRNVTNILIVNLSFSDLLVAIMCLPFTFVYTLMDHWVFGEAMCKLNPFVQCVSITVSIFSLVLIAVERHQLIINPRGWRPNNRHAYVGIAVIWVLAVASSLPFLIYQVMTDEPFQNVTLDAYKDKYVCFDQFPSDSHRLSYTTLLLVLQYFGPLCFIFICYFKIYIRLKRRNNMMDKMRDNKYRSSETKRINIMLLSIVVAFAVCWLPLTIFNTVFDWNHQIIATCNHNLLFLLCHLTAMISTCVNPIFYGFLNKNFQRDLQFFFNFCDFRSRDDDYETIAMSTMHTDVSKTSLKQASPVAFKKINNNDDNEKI
Experiment: not given
Type: cell membranes, Membrane
Conditions: sk-n-mc

Compound | IC50
COc1cc(C(=O)NC2CCCNC2)cc(OC)c1OC (stereo not given) [TROXIPIDE] | Not Active
CC(C)(C)NCC(O)c1ccc(O)c(CO)c1 (stereo not given) [ALBUTEROL] | Not Active
CC1(C)[C@H]2CC[C@]1(C)C(=O)C2 [(-)-CAMPHOR] | Not Active
NNc1ccccc1 [PHENYLHYDRAZINE] | Not Active

System: not listed separately
Experiment: DRUGMATRIX: Phorbol Ester radioligand binding (ligand: [3H] PDBu)
Type: cell membranes, Mus musculus, ICR, Brain, Membrane
Conditions: Not Active = under 50% inhibition at 10 µM

Compound | IC50 | Ki
COc1cc(C(=O)NC2CCCNC2)cc(OC)c1OC (stereo not given) [TROXIPIDE] | Not Active | Not Active
CC(C)(C)NCC(O)c1ccc(O)c(CO)c1 (stereo not given) [ALBUTEROL] | Not Active | Not Active
CC1(C)[C@H]2CC[C@]1(C)C(=O)C2 [(-)-CAMPHOR] | Not Active | Not Active
NNc1ccccc1 [PHENYLHYDRAZINE] | Not Active | Not Active

Biological target: T6, Interstitial collagenase (Homo sapiens, UniProt P03956)
T6 sequence (P03956 whole entry): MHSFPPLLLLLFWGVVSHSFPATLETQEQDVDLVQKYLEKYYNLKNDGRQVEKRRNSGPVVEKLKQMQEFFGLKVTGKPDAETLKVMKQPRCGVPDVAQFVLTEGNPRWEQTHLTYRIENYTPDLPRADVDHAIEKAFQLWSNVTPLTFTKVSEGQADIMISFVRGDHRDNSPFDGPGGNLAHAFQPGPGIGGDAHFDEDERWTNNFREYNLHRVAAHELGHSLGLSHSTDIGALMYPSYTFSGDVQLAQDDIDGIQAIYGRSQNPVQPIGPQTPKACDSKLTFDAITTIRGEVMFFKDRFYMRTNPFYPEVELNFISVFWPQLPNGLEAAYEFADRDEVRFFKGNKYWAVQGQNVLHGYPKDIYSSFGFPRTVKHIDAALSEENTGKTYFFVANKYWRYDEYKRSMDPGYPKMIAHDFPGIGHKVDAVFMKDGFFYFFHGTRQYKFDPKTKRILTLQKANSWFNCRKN
Experiment: not given
Type: tissue-based, Rheumatoid synovial fibroblasts
Conditions: not given

Compound | IC50
COc1cc(C(=O)NC2CCCNC2)cc(OC)c1OC (stereo not given) [TROXIPIDE] | Not Active
CC(C)(C)NCC(O)c1ccc(O)c(CO)c1 (stereo not given) [ALBUTEROL] | Not Active
CC1(C)[C@H]2CC[C@]1(C)C(=O)C2 [(-)-CAMPHOR] | Not Active
NNc1ccccc1 [PHENYLHYDRAZINE] | Not Active

Biological target: Mitogen-activated protein kinase 1 (Homo sapiens, UniProt P28482)
Sequence (P28482 whole entry): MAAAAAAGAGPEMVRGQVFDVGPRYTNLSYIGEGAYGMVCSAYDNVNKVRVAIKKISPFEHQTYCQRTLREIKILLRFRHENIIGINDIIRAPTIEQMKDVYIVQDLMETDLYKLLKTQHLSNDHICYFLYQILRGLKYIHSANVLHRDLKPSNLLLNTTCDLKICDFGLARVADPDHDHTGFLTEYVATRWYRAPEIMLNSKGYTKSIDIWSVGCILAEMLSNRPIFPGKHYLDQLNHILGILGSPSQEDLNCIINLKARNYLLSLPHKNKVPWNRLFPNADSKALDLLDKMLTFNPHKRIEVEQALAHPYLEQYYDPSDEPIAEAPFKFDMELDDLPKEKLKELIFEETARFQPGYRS
Experiment: DRUGMATRIX: Protein Serine/Threonine Kinase, ERK2 enzyme inhibition (substrate: Myelin Basic Protein)
Parameters: species or system Escherichia coli
Conditions: Not Active = under 50% inhibition at 10 µM

Compound | IC50
COc1cc(C(=O)NC2CCCNC2)cc(OC)c1OC (stereo not given) [TROXIPIDE] | Not Active
CC(C)(C)NCC(O)c1ccc(O)c(CO)c1 (stereo not given) [ALBUTEROL] | Not Active
CC1(C)[C@H]2CC[C@]1(C)C(=O)C2 [(-)-CAMPHOR] | Not Active
NNc1ccccc1 [PHENYLHYDRAZINE] | Not Active

Biological target: T7, Adenosine receptor A3 (Homo sapiens, UniProt P0DMS8)
T7 sequence (P0DMS8 whole entry): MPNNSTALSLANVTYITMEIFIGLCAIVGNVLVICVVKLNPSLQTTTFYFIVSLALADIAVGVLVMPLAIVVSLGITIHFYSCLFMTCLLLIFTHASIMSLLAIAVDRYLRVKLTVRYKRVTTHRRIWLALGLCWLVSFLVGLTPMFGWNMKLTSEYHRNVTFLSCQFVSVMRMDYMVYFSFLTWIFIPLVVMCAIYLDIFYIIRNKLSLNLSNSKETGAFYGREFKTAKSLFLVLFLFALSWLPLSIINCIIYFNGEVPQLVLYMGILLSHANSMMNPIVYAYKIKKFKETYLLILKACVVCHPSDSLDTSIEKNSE
Experiment: not given
Type: cell membranes, CHO-K1, Membrane
Conditions: cho-k1

Compound | IC50
COc1cc(C(=O)NC2CCCNC2)cc(OC)c1OC (stereo not given) [TROXIPIDE] | Not Active
CC(C)(C)NCC(O)c1ccc(O)c(CO)c1 (stereo not given) [ALBUTEROL] | Not Active
CC1(C)[C@H]2CC[C@]1(C)C(=O)C2 [(-)-CAMPHOR] | Not Active
NNc1ccccc1 [PHENYLHYDRAZINE] | Not Active
